“And” between values parts separate entries of the source, which are not always exact repeats. Equal values may be shown once.
Key:
[1] = system: genetisch hypertonen Ratten; assay: Antihypertensive effect: systolic blood pressure (tail cuff) in conscious genetically hypertensive rats, oral dosing once daily on four consecutive days; format: in vivo, Ratten (Stamm SHR/N/Ibm/Bm); conditions: for BP (%-Änderungen): 20,0 mg/kg p.o.; for Th.W. (Therapeutische Wirksamkeit): mean of quotient over the doses of Table I
Experimental: Zur Bestimmung der äntihypertensiven Wirkung werden die unten aufgeführten Verbindungen in den angegebenen Dosen an vier aufeinander folgenden Tagen an je 6 Ratten (Stamm SHR/N/Ibm/Bm, ♂, 250-350 g) mit genetisch bedingtem Hochdruck (RR > 180 mmHg) täglich einmal mittels Schlundsonde verabfolgt. Die Messung des Blutdrucks erfolgt jeweils 2, 6 und gegebenenfalls 24 Stunden nach Substanzgabe.
Die Blutdruckmessung wird in einer Wärmekammer bei 36°C vorgenommen, um eine bessere Durchblutung der Schwanzarterie zu erreichen. Hierzu werden die Tiere in perforierte Lochblechkäfige verbracht und 20 - 40 Min. nach Beginn der Aufwärmung gemessen. Zur Messung des systolischen arteriellen Drucks wird eine ringförmige Manschette mit aufblasbarer Gummimembran zur Unterbindung der Durchblutung und ein ringförmiger Piezökristallaufnehmer zur Erfassung der Pulswellen auf den Schwanz aufgeschoben. Nach erfolgter Unterbindung des Blutstroms in der Schwanzarterie wird der Manschettendruck kontinuierlich reduziert. […] Pulssignale und Druckverlauf werden zur Auswertung graphisch aufgezeichnet.
Zur Gewöhnung an den Meßvorgang werden die Tiere vor Substanzprüfung 14 Tage traniniert. In der zweiten Trainingswoche werden Blutdruck-Vorwerte erhoben. Tiergruppen, die Substanz erhälten, werden gegen eine Kontrollgruppe geprüft.

[2] = Oral toxicity (LD50) in mice, 14 days observation; format: in vivo; conditions: mouse, in vivo, N=5/dose
From the text: Die Toxizitätsuntersuchungen werden an weiblichen NMRI-Mäusen (Körpergewicht 22 - 26 g) durchgeführt. Die Tiere (5 Tiere pro Dosis) erhalten Futter und Wasser ad libitum. Verschiedene Dosen der Substanzen werden oral verabreicht. Die Beobachtungsdauer beträgt 14 Tage. Die LD50, d.h. die Dosis bei der 50% der Tiere sterben, wird aus der Dosiswirkungskurve graphisch ermittelt.

[3] = day 1 (2h, 6h and 24h Th.W. averaged), normalised to Th.W. Fusarsäure = 1
[4] = day 2, normalised to Th.W. Fusarsäure = 1
[5] = day 3 (6h and 24h Th.W. averaged), normalised to Th.W. Fusarsäure = 1
[6] = day 4 (2h and 6h Th.W. averaged), normalised to Th.W. Fusarsäure = 1

CCN(CC)CCCOC(=O)c1ccc(-c2ccccc2)cn1 [Beispiel 4]
Th.I. Fusarsäure = 1 [1, 3]: 10,9
Th.I. Fusarsäure = 1 [1, 4]: 7,2
Th.I. Fusarsäure = 1 [1, 5]: 6,5
Th.I. Fusarsäure = 1 [1, 6]: 3,3

CCN(CC)CCCNC(=O)c1ccc(-c2ccc(Cl)cc2)cn1 [Beispiel 9]
LD50 at 336 h [2]: > 1000 mg/kg

CCCCc1ccc(C(=O)OCCCN(C)C)nc1 [lfd. Nr. 3, 5-n-Butylpyridin-2-carbonsäure-(3-dimethylaminopropyl)-ester]
BP (%-Änderungen) ([1]; day 1, 2h, listed as 2): -5% and -8%
BP (%-Änderungen) ([1]; day 1, 6h, listed as 2): -10% and -13%
BP (%-Änderungen) ([1]; day 1, 24h): 0%
BP (%-Änderungen) ([1]; day 2, 6h, listed as 2): -6% and -9%
BP (%-Änderungen) ([1]; day 3, 6h, listed as 2): -4% and -7%
BP (%-Änderungen) ([1]; day 3, 24h): -2%
BP (%-Änderungen) ([1]; day 4, 2h, listed as 2): -5% and -8%
BP (%-Änderungen) ([1]; day 4, 6h, listed as 2): -7% and -10%
Th.I. Fusarsäure = 1 [1, 3]: 4,3
Th.W. (Therapeutische Wirksamkeit) ([1]; day 1, 2h): -5,6 %-Änderung BP / µmol/kg x 100
Th.W. (Therapeutische Wirksamkeit) ([1]; day 1, 6h): -10,3 %-Änderung BP / µmol/kg x 100
Th.W. (Therapeutische Wirksamkeit) ([1]; day 1, 24h): 1,3 %-Änderung BP / µmol/kg x 100
Th.W. (Therapeutische Wirksamkeit) ([1]; day 2, 6h): -6,7 %-Änderung BP / µmol/kg x 100
Th.I. Fusarsäure = 1 [1, 4]: 5,2
Th.I. Fusarsäure = 1 [1, 5]: 2,5
Th.W. (Therapeutische Wirksamkeit) ([1]; day 3, 6h): -4,5 %-Änderung BP / µmol/kg x 100
Th.W. (Therapeutische Wirksamkeit) ([1]; day 3, 24h): 0,4 %-Änderung BP / µmol/kg x 100
Th.I. Fusarsäure = 1 [1, 6]: 1,1
Th.W. (Therapeutische Wirksamkeit) ([1]; day 4, 2h): -5,6 %-Änderung BP / µmol/kg x 100
Th.W. (Therapeutische Wirksamkeit) ([1]; day 4, 6h): -7,6 %-Änderung BP / µmol/kg x 100
